{"source": "paper PMC11352859", "about": "“Functionalized Congeners of 2H-Chromene P2Y6 Receptor Antagonists” (Cells, 2024)", "key": {"hP2Y6R": {"target": "T1, hP2Y6R (Homo sapiens, UniProt Q15077)", "T1 construct": "expressed in transfected cells", "T1 sequence (Q15077 whole entry)": "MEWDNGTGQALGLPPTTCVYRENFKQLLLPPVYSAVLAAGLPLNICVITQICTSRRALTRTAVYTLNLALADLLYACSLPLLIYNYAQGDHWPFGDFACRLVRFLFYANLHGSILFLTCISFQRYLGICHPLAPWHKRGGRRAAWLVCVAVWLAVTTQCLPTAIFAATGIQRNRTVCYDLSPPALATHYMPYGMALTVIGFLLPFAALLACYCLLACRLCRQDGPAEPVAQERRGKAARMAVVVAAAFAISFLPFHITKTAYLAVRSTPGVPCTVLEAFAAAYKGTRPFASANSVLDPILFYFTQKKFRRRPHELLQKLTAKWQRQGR", "test": "UDP (100 nM)-induced Ca2+ mobilization in hP2Y6R stably transfected 1321N1 astrocytoma cells", "format": "cell-based", "procedure": "To screen for P2Y6R antagonist activity, PLC-mediated calcium mobilization assays were carried out using the recombinant human P2Y6R stably expressed in 1321N1 astrocytoma cells (hP2Y6R-1321N1) according to the previously published method. Briefly, the hP2Y6R-1321N1 cells were seeded on 96-well black plates and incubated overnight. The antagonists were pretreated along with the FLIPR dye (Calcium 6 assay kit, Molecular Devices, San Jose, CA, USA) containing 5 mM probenecid for 45 min, prior to agonist addition followed by an immediate intracellular Ca^2+ measurement. […] Here, probenecid was used as an organic anion transporter inhibitor to prevent the efflux of the dye into the extracellular environment. During incubation, the membrane permeable dye enters the cytoplasm and cleaves the acetoxymethyl protection to enable Ca^2+ binding. When the P2Y6R was activated by UDP, the increased calcium concentration was directly measured by intracellular changes in the fluorescence intensity with a Fluorescent Imaging Plate Reader (FLIPR^TETRA, Molecular Devices, San Jose, CA, USA)."}, "α2A": {"target": "T2, α2A (Homo sapiens, UniProt P08913)", "T2 construct": "NIMH Psychoactive Drug Screening Program (PDSP)", "T2 sequence (P08913 1-465)": "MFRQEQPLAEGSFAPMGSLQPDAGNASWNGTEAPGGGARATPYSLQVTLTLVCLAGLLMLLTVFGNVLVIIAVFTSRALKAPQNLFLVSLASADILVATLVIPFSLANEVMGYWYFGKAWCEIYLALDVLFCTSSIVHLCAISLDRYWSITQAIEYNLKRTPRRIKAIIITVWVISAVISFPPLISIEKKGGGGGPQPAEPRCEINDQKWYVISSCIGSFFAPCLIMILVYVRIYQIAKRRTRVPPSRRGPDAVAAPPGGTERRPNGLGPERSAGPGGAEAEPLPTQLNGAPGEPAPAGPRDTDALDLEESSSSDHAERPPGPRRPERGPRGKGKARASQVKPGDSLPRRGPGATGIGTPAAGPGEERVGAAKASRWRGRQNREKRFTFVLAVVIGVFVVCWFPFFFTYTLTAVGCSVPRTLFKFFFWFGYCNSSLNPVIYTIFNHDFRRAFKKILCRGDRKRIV", "test": "PDSP binding assay, α2A", "text": "(§1) Table S2. Off-target screening (to replace table later). We thank Dr. Bryan L. Roth (Univ. North Carolina at Chapel Hill) and National Institute of Mental Health's Psychoactive Drug Screening Program (Contract # HHSN-271-2008-00025-C) for screening data. Reference: Besnard et al.\n(§2) Procedures: https://pdsp.unc.edu/pdspweb/content/UNC-CH%20Protocol%20Book.pdf […]\n(§3) nucleosides were found at the following sites (human unless noted): 5HT1A, 5HT1B, 5HT1D, […]\n(§4) β3, BZP rat brain site, D1, D2, D3, D4, D5, GABAA, H1, H2, H3, H4, M1, M2, M5, δ-opioid receptor (DOR), κ-opioid receptor (KOR), μ-opioid receptor (MOR), σ1, σ2, DAT, NET, SERT. Ki values […]\n(§5) Compound # PDSP # Receptor LogKi Ki (nM)"}, "α2B": {"target": "T3, α2B (Homo sapiens, UniProt P18089)", "T3 construct": "NIMH Psychoactive Drug Screening Program (PDSP)", "T3 sequence (P18089 1-450)": "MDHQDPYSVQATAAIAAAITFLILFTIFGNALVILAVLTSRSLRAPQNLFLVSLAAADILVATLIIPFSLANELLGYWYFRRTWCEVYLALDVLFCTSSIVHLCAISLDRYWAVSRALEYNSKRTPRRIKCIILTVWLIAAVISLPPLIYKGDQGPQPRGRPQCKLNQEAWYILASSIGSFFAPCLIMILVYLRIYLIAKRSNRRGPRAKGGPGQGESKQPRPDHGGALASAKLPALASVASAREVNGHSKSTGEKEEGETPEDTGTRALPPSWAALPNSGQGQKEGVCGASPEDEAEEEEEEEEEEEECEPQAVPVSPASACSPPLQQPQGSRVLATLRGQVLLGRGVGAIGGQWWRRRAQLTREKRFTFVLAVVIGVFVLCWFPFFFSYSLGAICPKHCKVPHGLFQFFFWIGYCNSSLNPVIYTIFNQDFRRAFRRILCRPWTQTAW", "test": "PDSP binding assay, α2B", "conditions": "mean, n = 2", "text": "as §1, §2, §3, §4, §5"}, "D4": {"target": "T4, D4 (Homo sapiens, UniProt P21917)", "T4 construct": "NIMH Psychoactive Drug Screening Program (PDSP)", "T4 sequence (P21917 whole entry)": "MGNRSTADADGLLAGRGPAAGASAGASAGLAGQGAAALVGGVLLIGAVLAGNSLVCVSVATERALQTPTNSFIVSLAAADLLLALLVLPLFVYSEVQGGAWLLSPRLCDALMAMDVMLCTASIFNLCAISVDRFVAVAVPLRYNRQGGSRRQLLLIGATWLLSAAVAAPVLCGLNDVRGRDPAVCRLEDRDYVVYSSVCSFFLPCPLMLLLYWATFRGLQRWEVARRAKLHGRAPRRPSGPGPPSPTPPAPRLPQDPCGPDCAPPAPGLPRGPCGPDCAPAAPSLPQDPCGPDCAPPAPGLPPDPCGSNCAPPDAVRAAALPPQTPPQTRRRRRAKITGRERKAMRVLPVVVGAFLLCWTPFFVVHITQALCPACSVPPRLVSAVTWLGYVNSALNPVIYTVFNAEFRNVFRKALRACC", "test": "PDSP binding assay, D4", "conditions": "mean, n = 2", "text": "as §1, §2, §3, §4, §5"}, "D5": {"target": "T5, D5 (Homo sapiens, UniProt P21918)", "T5 construct": "NIMH Psychoactive Drug Screening Program (PDSP)", "T5 sequence (P21918 whole entry)": "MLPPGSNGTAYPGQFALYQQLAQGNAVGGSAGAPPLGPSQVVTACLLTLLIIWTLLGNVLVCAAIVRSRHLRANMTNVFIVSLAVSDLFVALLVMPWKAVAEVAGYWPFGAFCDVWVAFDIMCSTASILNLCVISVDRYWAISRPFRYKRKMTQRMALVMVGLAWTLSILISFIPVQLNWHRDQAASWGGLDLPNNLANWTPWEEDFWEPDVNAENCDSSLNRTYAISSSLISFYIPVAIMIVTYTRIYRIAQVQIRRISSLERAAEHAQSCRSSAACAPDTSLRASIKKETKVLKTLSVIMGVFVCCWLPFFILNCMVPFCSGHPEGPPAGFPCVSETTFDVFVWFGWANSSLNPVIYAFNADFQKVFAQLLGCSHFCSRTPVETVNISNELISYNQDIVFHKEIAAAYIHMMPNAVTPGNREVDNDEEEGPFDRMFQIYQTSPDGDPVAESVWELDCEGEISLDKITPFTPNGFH", "test": "PDSP binding assay, D5", "text": "as §1, §2, §3, §4, §5"}, "H2": {"target": "T6, H2 (Homo sapiens, UniProt P25021)", "T6 construct": "NIMH Psychoactive Drug Screening Program (PDSP)", "T6 sequence (P25021 whole entry)": "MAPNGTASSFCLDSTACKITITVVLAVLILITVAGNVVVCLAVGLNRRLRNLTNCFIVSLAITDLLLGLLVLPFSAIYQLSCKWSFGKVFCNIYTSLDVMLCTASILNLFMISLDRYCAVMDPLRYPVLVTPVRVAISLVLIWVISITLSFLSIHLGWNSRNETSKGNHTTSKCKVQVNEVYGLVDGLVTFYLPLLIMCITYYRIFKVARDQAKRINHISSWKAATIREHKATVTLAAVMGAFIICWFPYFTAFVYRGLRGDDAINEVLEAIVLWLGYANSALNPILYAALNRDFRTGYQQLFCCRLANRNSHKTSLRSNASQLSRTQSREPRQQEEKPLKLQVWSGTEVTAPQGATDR", "test": "PDSP binding assay, H2", "conditions": "mean, n = 2", "text": "as §1, §2, §3, §4, §5"}, "SERT": {"target": "T7, SERT (Homo sapiens, UniProt P31645)", "T7 construct": "NIMH Psychoactive Drug Screening Program (PDSP)", "T7 sequence (P31645 whole entry)": "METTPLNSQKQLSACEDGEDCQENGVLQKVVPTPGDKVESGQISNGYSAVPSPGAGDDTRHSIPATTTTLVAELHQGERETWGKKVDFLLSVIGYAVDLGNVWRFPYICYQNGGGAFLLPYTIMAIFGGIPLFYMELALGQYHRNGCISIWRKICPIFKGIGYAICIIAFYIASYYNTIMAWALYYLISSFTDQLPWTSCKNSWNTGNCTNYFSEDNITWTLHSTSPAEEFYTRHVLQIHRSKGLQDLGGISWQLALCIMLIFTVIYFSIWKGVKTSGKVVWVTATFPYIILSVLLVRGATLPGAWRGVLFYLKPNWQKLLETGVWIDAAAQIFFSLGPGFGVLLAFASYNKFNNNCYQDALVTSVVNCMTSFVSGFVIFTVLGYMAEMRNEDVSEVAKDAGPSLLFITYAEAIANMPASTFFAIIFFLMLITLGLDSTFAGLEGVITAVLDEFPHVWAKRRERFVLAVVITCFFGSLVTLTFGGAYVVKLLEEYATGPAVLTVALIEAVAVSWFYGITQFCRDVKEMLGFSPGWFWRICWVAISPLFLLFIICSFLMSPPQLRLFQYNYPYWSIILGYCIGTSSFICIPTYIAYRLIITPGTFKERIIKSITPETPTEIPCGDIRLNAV", "test": "PDSP binding assay, SERT", "conditions": "Table S2, single determination", "text": "as §1, §2, §3, §4, §5"}, "HeLa cells": {"test_system": "HeLa cells", "test": "MTT cell viability assay, HeLa cells", "format": "cell-based, human", "conditions": "for % survival: 12 h, MTT", "procedure": "(§6) The 1321N1 astrocytoma (hP2Y6R-overexpressing) and HeLa (non-transfected) cell lines were cultured in Dulbecco’s modified Eagle’s medium (DMEM, HyClone, Logan, UT, USA) supplemented with 5% heat-inactivated fetal bovine serum (FBS, HyClone, UT, USA), 100 U/mL penicillin, and 100 µg/mL streptomycin in 5% CO2 at 37 °C. The cell viability was determined using an MTT kit (Sigma, St. Louis, MO, USA) according to the manufacturer’s instructions. Briefly, 1 × 10^4 cells were seeded in triplicate in 96-well plates. The hP2Y6R-astrocytoma and HeLa cells were treated with a P2Y6R agonist and antagonists at a range of concentrations and incubated for 12 h. The cell viability was measured at 490 nm using a SpectraMax-M5 Spectrometer (Molecular Devices, San Jose, CA, USA)."}, "[1]": {"test_system": "hP2Y6R-1321N1 human astrocytoma cells", "test": "MTT cell viability assay, hP2Y6R-1321N1 astrocytoma cells", "format": "cell-based", "conditions": "for % survival: P2Y6R-astrocytoma, 12 h, MTT", "procedure": "as §6"}}, "note": "Several values for one entry are separate records, joined by “and”; a condition that tells them apart may be missing. Identical values can stand only once. Like-named read-outs stand apart in the source and are kept apart here.", "data": [{"smiles": "CC(C)(C)OC(=O)NCCCCCCCC#Cc1ccc2c(c1)C=C([N+](=O)[O-])C(C(F)(F)F)O2", "note": "(centres unmarked) [Compound 30, tert-Butyl (9-(3-nitro-2-(trifluoromethyl)-2H-chromen-6-yl)non-8-yn-1-yl)carbamate]", "values": [{"measurement": "IC50", "setting": "hP2Y6R; UDP 100 nM, 3–4 independent triplicate determinations, read-out: IC50, hP2Y6R (Mean ± SEM)", "result": "162 ± 13", "unit": "nM"}, {"measurement": "fold greater affinity than the corresponding pivaloyl derivative", "setting": "hP2Y6R; hP2Y6R IC50 ratio", "result": 107, "unit": "fold"}, {"measurement": "Ki", "setting": "α2A; PDSP, mean, n = 2, read-out: Ki, α2A", "result": 86, "unit": "nM"}, {"measurement": "Ki", "setting": "α2A; Table S2, single determinations, read-out: Ki (nM), Alpha2A", "result": "80.2 nM and 90.7 nM"}, {"measurement": "Ki", "setting": "α2B", "result": 170, "unit": "nM"}, {"measurement": "Ki", "setting": "D4", "result": 3100, "unit": "nM"}, {"measurement": "Ki", "setting": "D5; PDSP, mean, n = 2, read-out: Ki, D5", "result": 780, "unit": "nM"}, {"measurement": "Ki", "setting": "D5; Table S2, single determinations, read-out: Ki (nM), D5", "result": "643 nM and 911 nM"}, {"measurement": "Ki", "setting": "H2", "result": 500, "unit": "nM"}, {"measurement": "Ki", "setting": "SERT", "result": "> 10000", "unit": "nM"}, {"measurement": "% survival", "setting": "HeLa cells; 0.05 µM", "result": 94, "unit": "%"}, {"measurement": "% survival", "setting": "HeLa cells; 0.1 µM", "result": 94, "unit": "%"}, {"measurement": "% survival", "setting": "HeLa cells; 0.5 µM", "result": 87, "unit": "%"}, {"measurement": "% survival", "setting": "HeLa cells; 1 µM", "result": 71, "unit": "%"}, {"measurement": "inhibition of viability", "setting": "HeLa cells; at 1 µM, 12 h exposure", "result": 29, "unit": "%"}, {"measurement": "% survival", "setting": "[1]; 0.05 µM", "result": 98, "unit": "%"}, {"measurement": "% survival", "setting": "[1]; 0.1 µM", "result": 98, "unit": "%"}, {"measurement": "% survival", "setting": "[1]; 0.5 µM", "result": 83, "unit": "%"}, {"measurement": "% survival", "setting": "[1]; 1 µM", "result": 77, "unit": "%"}, {"measurement": "inhibition of viability", "setting": "[1]; hP2Y6R-1321N1 cells, at 1 µM, 12 h exposure", "result": 23, "unit": "%"}]}]}
